# From patent EP3153515A1, “COMPOUNDS FOR INHIBITING HEPATITIS C VIRUS, PHARMACEUTICAL COMPOSITIONS AND USES THEREOF” (priority 2014, dated 2015)
# Test system: HCV NS5A replicon GT-1a
# Assay: HCV NS5A replicon anti-viral activity (EC50), dual-reporter Renilla luciferase, GT-1a
# Type: cell-based
# Details: Hepatitis C virus, GT1A; GT-1a replicon; read-out: NS5A Inhibitory Activity (EC50 of GT-1a subtype inhibition)
# From the text: The autonomous replication level of HCV in liver cells in vitro is very low, and the only animal that can be infected by HCV is chimpanzee, therefore there is no appropriate animal model currently available for preclinical pharmacodynamic study. Some researchers have transplanted human liver tissue infected with HCV in vitro into immune deficient mice to establish an in vivo mice model, but these mice are hard to raise and the model is unstable and short of normal immunologic reaction. Moreover, the model has significant difference with the pathogenic process of hepatitis C, therefore, it has not been used for animal model to assess the action of anti-HCV medicine yet. The progress of the development of anti-viral drugs for the treatment of HCV infection had been very slow because the pathogenic mechanism and life cycle of HCV were unclear before 1999 due to the lack of cell culture system for effective multiplication of HCV. But researchers managed to achieve a breakthrough in 1999 after numerous attempts. An effective cell culture model-replicon system in which HCV is capable of autonomous replication in transfected human hepatic carcinoma cell line Huh-7 had been established in that year on the basis of subgenomic HCV RNA built with genetic engineering.
# The above-mentioned cell culture model-replicon system which has been widely accepted in the industry is used in this invention for ex vivo experiments and subsequent assessment of drugs based on the experiment results.
# The therapeutic effect of the compounds of this invention on HCV infection can be preliminarily assessed through the following preclinical in vitro inhibitory action test and can be further confirmed in clinical trials. Other methods used in the invention are also quite familiar to professionals in this field with ordinary technical knowledge. Method for testing the anti-viral activity(EC50) in HCV NS5A replicon system: • The viral replication level in infected cells was determined by testing Renilla luciferase with the newly established dual-reporter gene replicon system. There was a good linear relation between the expression level of the reporter gene and the HCV RNA replication level and viral protein expression level. The anti-viral activity was determined for 3 replicates in 3 replicate cells at five(5) 1:2 diluted concentration gradients, with 1 to 2 positive controls. The EC50 of the compounds was calculated in the end.
# The compounds of the invention, or their stereoisomers, tautomers, esterified or amidated prodrugs, or pharmaceutically acceptable salts and mixtures have been subjected to test to determined their therapeutic effects in the treatment of HCV infection. […] Moreover, the results of 6a-6ep(Ia), 6fa-6gq(Ib) and reference compounds Ref-1(BMS-790052), Ref-2(GS5885), Ref-3 in HCV-NS5 inhibition test reveal that the cyclopentanyl/hexamethyleneamino radical containing linear polypeptide compounds 6a-6ep, 6fa-6gq and reference compounds Ref-1, Ref-2, Ref-3 have good HCV inhibitory results. […] The replicons GT-1a, GT-lb, GT-2a, GT-3a, GT-4a, GT-5a and GT-6a used for the test are routine replicons commercially available in this field. Table 1: HCV NS5A replicon inhibitory activity test results of compounds (6a-6gq) of the invention
row,Compound,EC50 [nM]
1,COC(=O)N[C@H](C(=O)N1CCC[C@H]1c1nc(-c2ccc(-c3ccc(-c4cnc([C@@H]5C[C@@H](OC(=O)N6Cc7ccc8c(c7C6)OCO8)CN5C(=O)[C@@H](NC(=O)OC)C(C)C)[nH]4)cc3)cc2)c[nH]1)C(C)C [6a],0.001 to 0.999
2,COC(=O)N[C@H](C(=O)N1CCCC[C@H]1c1nc(-c2ccc(-c3ccc(-c4c[nH]c([C@@H]5CCCN5C(=O)[C@@H](NC(=O)OC)C(C)C)n4)cc3)cc2)c[nH]1)C(C)C [6ab],0.001 to 0.999
3,COC(=O)N[C@H](C(=O)N1CCCC[C@H]1c1nc(-c2ccc(-c3ccc(-c4c[nH]c([C@@H]5C[C@H](OC(=O)N6Cc7cc8c(cc7C6)OCO8)CN5C(=O)[C@@H](NC(=O)OC)C(C)C)n4)cc3)cc2)c[nH]1)C(C)C [6ac],0.001 to 0.999
4,COC(=O)N[C@H](C(=O)N1CCCC[C@H]1c1nc(-c2ccc(-c3ccc(-c4c[nH]c([C@@H]5COCCN5C(=O)[C@@H](NC(=O)OC)C(C)C)n4)cc3)cc2)c[nH]1)C(C)C [6aj],0.001 to 0.999
5,CC(C)(C)OC(=O)N[C@H](C(=O)N1CC=C[C@H]1c1ncc(-c2ccc(-c3ccc(-c4c[nH]c([C@@H]5CCCN5C(=O)[C@@H](NC(=O)OC(C)(C)C)C(C)(C)C)n4)cc3)cc2)[nH]1)C(C)(C)C [6bb],> 50
6,COC(=O)N[C@H](C(=O)N1CCC[C@H]1c1nc(-c2ccc(-c3ccc(-c4cnc([C@@H]5C=CCN5C(=O)[C@@H](NC(=O)OC(C)(C)C)C(C)C)[nH]4)cc3)cc2)c[nH]1)C(C)C [6bc],1 to 49.9
7,COC(=O)N[C@H](C(=O)N1CC=C[C@H]1c1nc(-c2ccc(-c3ccc(-c4cnc([C@@H]5C=CCN5C(=O)[C@@H](NC(=O)OC)C(C)C)[nH]4)cc3)cc2)c[nH]1)C(C)C [6bd],0.001 to 0.999
8,CC(C)[C@H](NC(=O)OC(C)(C)C)C(=O)N1CC=C[C@H]1c1nc(-c2ccc(-c3ccc(-c4cnc([C@@H]5C=CCN5C(=O)[C@@H](NC(=O)OC(C)(C)C)C(C)C)[nH]4)cc3)cc2)c[nH]1 [6be],0.001 to 0.999
9,CC(C)[C@H](NC(=O)OC1CCCC1)C(=O)N1CC=C[C@H]1c1nc(-c2ccc(-c3ccc(-c4cnc([C@@H]5C=CCN5C(=O)[C@@H](NC(=O)OC5CCCC5)C(C)C)[nH]4)cc3)cc2)c[nH]1 [6bf],> 50
10,CC(C)[C@H](NC(=O)OC1CCCC1)C(=O)N1CC=C[C@H]1c1ncc(-c2ccc(-c3ccc(-c4c[nH]c([C@@H]5CCCN5C(=O)[C@@H](NC(=O)OC5CCCC5)C(C)C)n4)cc3)cc2)[nH]1 [6bg],> 50
11,COC(=O)N[C@H](C(=O)N1CC=C[C@H]1c1nc(-c2ccc(-c3ccc(-c4c[nH]c([C@@H]5CCCN5C(=O)C5(NC(=O)OC)CC5)n4)cc3)cc2)c[nH]1)C(C)C [6bh],0.001 to 0.999
12,COC(=O)N[C@H](C(=O)N1CC=C[C@H]1c1nc(-c2ccc(-c3ccc(-c4c[nH]c([C@@H]5CCCN5C(=O)C5(NC(=O)OC)CCCCC5)n4)cc3)cc2)c[nH]1)C(C)C [6bj],0.001 to 0.999
13,COC(=O)N[C@H](C(=O)N1CC=C[C@H]1c1nc(-c2ccc(-c3ccc(-c4c[nH]c([C@@H]5COCCN5C(=O)[C@@H](NC(=O)OC)C(C)C)n4)cc3)cc2)c[nH]1)C(C)C [6bm],0.001 to 0.999
14,COC(=O)N[C@H](C(=O)N1CCC[C@H]1c1ncc(-c2ccc(-c3cc4sc(-c5cnc([C@@H]6CN(C(=O)N7Cc8cc9c(cc8C7)OCO9)CN6C(=O)[C@@H](NC(=O)OC)C(C)C)[nH]5)cc4s3)cc2)[nH]1)C(C)C [6bv],0.001 to 0.999
15,COC(=O)NC(C(=O)N1CCC[C@H]1c1ncc(-c2cc3sc(-c4ccc(-c5cnc([C@@H]6CN(C(=O)N7Cc8cc9c(cc8C7)OCO9)CN6C(=O)[C@@H](NC(=O)OC)C(C)C)[nH]5)cc4)cc3s2)[nH]1)c1ccccc1 (some centres unmarked) [6bw],0.001 to 0.999
16,COC(=O)NC(C(=O)N1CC=C[C@H]1c1ncc(-c2ccc(-c3ccc(-c4cnc([C@@H]5CCCN5C(=O)[C@@H](NC(=O)OC)C(C)C)[nH]4)cc3)cc2)[nH]1)c1ccccc1 (some centres unmarked) [6bx],0.001 to 0.999

row,Compound,EC50 [nM]
1,COC(=O)NC(C(=O)N1CCC[C@H]1c1nc(-c2ccc(-c3ccc(-c4c[nH]c([C@@H]5C=CCN5C(=O)[C@@H](NC(=O)OC)C(C)C)n4)cc3)cc2)c[nH]1)c1ccccc1 (some centres unmarked) [6by],0.001 to 0.999
2,COC(=O)NC(C(=O)N1CC=C[C@H]1c1ncc(-c2ccc(-c3ccc(-c4cnc([C@@H]5CCCN5C(=O)C(NC(=O)OC)c5ccccc5)[nH]4)cc3)cc2)[nH]1)c1ccccc1 (some centres unmarked) [6bz],0.001 to 0.999
3,COC(=O)NC(C(=O)N1CC=C[C@H]1c1ncc(-c2ccc(-c3ccc(-c4cnc([C@@H]5C=CCN5C(=O)C(NC(=O)OC)c5ccccc5)[nH]4)cc3)cc2)[nH]1)c1ccccc1 (some centres unmarked) [6ca],0.001 to 0.999
4,COC(=O)NC(C(=O)N1CC=C[C@H]1c1ncc(-c2ccc(-c3cc4sc(-c5cnc([C@@H]6CCCN6C(=O)[C@@H](NC(=O)OC)C(C)C)[nH]5)cc4s3)cc2)[nH]1)c1ccccc1 (some centres unmarked) [6cb],> 50
5,COC(=O)NC(C(=O)N1CC=C[C@H]1c1nc(-c2ccc(-c3cc4sc(-c5c[nH]c([C@@H]6CCCN6C(=O)C(NC(=O)OC)c6ccccc6)n5)cc4s3)cc2)c[nH]1)c1ccccc1 (some centres unmarked) [6cc],> 50
6,COC(=O)NC(C(=O)N1CC=C[C@H]1c1nc(-c2ccc(-c3cc4sc(-c5c[nH]c([C@@H]6C=CCN6C(=O)C(NC(=O)OC)c6ccccc6)n5)cc4s3)cc2)c[nH]1)c1ccccc1 (some centres unmarked) [6cd],> 50
7,CN(C)C(=O)NC(C(=O)N1CC=C[C@H]1c1ncc(-c2ccc(-c3ccc(-c4cnc([C@@H]5CCCN5C(=O)C(NC(=O)N(C)C)c5ccccc5)[nH]4)cc3)cc2)[nH]1)c1ccccc1 (some centres unmarked) [6ce],0.001 to 0.999
8,CNC(=O)NC(C(=O)N1CC=C[C@H]1c1ncc(-c2ccc(-c3ccc(-c4cnc([C@@H]5CCCN5C(=O)C(NC(=O)NC)c5ccccc5)[nH]4)cc3)cc2)[nH]1)c1ccccc1 (some centres unmarked) [6cf],0.001 to 0.999
9,CC(C)[C@H](NC(=O)N(C)C)C(=O)N1CC=C[C@H]1c1ncc(-c2ccc(-c3ccc(-c4cnc([C@@H]5CCCN5C(=O)[C@@H](NC(=O)N(C)C)C(C)C)[nH]4)cc3)cc2)[nH]1 [6cg],0.001 to 0.999
10,CNC(=O)N[C@H](C(=O)N1CC=C[C@H]1c1ncc(-c2ccc(-c3ccc(-c4cnc([C@@H]5CCCN5C(=O)[C@@H](NC(=O)NC)C(C)C)[nH]4)cc3)cc2)[nH]1)C(C)C [6ch],0.001 to 0.999
11,COC(=O)N[C@H](C(=O)N1CCC[C@H]1c1ncc(-c2ccc(-c3ccc(-c4cnc([C@@H]5C=CCN5C(=O)[C@@H](NC(=O)N(C)C)C(C)C)[nH]4)cc3)cc2)[nH]1)C(C)C [6ci],0.001 to 0.999
12,CNC(=O)N[C@H](C(=O)N1CC=C[C@H]1c1ncc(-c2ccc(-c3ccc(-c4cnc([C@@H]5CCCN5C(=O)[C@@H](NC(=O)OC)C(C)C)[nH]4)cc3)cc2)[nH]1)C(C)C [6cj],0.001 to 0.999
13,COC(=O)N[C@H](C(=O)N1CCC[C@H]1c1ncc(-c2ccc(-c3ccc(-c4cnc([C@@H]5CNCN5C(=O)[C@@H](NC(=O)OC)C(C)C)[nH]4)cc3)cc2)[nH]1)C(C)C [6cu],0.001 to 0.999
14,COC(=O)N[C@H](C(=O)N1CC=C[C@H]1c1ncc(-c2ccc(-c3ccc(-c4cnc([C@@H]5CN(C(=O)OC(C)(C)C)CN5C(=O)[C@@H](NC(=O)OC)C(C)C)[nH]4)cc3)cc2)[nH]1)C(C)C [6cw],0.001 to 0.999
15,COC(=O)N[C@H](C(=O)N1CC=C[C@H]1c1ncc(-c2ccc(-c3ccc(-c4cnc([C@@H]5CN(S(C)(=O)=O)CN5C(=O)[C@@H](NC(=O)OC)C(C)C)[nH]4)cc3)cc2)[nH]1)C(C)C [6cz],0.001 to 0.999
16,COC(=O)N[C@H](C(=O)N1CC=C[C@H]1c1ncc(-c2ccc(-c3ccc(-c4cnc([C@@H]5CN(C(=O)OC(C)C)CN5C(=O)[C@@H](NC(=O)OC)C(C)C)[nH]4)cc3)cc2)[nH]1)C(C)C [6dc],0.001 to 0.999
